# Experimental data as given in patent US8497385B2, “Bryostatin analogues, synthetic methods and uses” (The Board of Trustees of the Leland Stanford Junior …, priority 2007, dated 2013).
# Experiments:
# [1] = test system: HCT-15; assay: NCI growth inhibition, HCT-15 (Colon); assay type: cell-based, human
# [2] = test system: SK-OV-3; assay: NCI growth inhibition, SK-OV-3 (Ovarian); assay type: cell-based, human
# [3] = test system: U251; assay: NCI growth inhibition, U251 (CNS); assay type: cell-based, human
# [4] = test system: HOP-92; assay: NCI growth inhibition, HOP-92 (NSC Lung); assay type: cell-based, human
# [5] = test system: IGROVI; assay: NCI growth inhibition, IGROVI (Ovarian); assay type: cell-based, human
# [6] = test system: OVCAR-8; assay: NCI growth inhibition, OVCAR-8 (Ovarian); assay type: cell-based, human
# [7] = test system: SN12C; assay: NCI growth inhibition, SN12C (Renal); assay type: cell-based, human
# [8] = test system: P388 cell line; assay: P388 Murine Lymphocytic Leukemia Cell Assay; assay type: cell-based
# Procedure: Cells from a P388 cell line (CellGate, Inc., Sunnyvale, Calif.) are grown in RPMI 1640 cell medium containing fetal calf serum (10%), L-glutamine, penicillin, streptomycin and are split twice weekly. All compounds are first diluted with DMSO. Later serial dilutions are done with a phosphate buffer solution (HYQ DPBS modified phosphate buffered saline). All dilutions are done in glass vials and the final DMSO concentration is always below 0.5% by volume. Final two-fold dilutions are done in a 96 well plate using cell media so that each well contains 50 μL. All compounds are assayed in quadruplicate over 12 concentrations. Cell concentration is measured using a hemacytometer and the final cell concentration is adjusted to 1×10^4 cells/mL with cell medium. The resulting solution of cells (50 μL) is then added to each well and the plates are incubated for 5 days in a 37° C., 5% CO2, humidified incubator (Sanyo CO2 incubator). MTT solution (3-[4,5-dimethylthiazol-2-yl]-2,5-diphenyltetrazolium bromide, 10 μL) is then added to each well and the plates are re-incubated under identical conditions for 2 h. To each well is then added acidified isopropanol (150 μL of i-PrOH solution containing 0.05 N HCl) and mixed thoroughly. The plates are then scanned at 595 nm and the absorbances are read (Wallac Victor 1420 Multilabel Counter). The resulting data is then analyzed to determine an ED50 value using the Prism software package (GraphPad).
# [9] = test system: K-562; assay: NCI growth inhibition, K-562 (Leukemia); assay type: cell-based, human
# [10] = test system: OVCAR-4; assay: NCI growth inhibition, OVCAR-4 (Ovarian); assay type: cell-based, human
# [11] = test system: MCF7; assay: NCI growth inhibition, MCF7 (Breast); assay type: cell-based, human
# [12] = test system: NCI-H322M; assay: NCI growth inhibition, NCI-H322M (NSC Lung); assay type: cell-based, human
# [13] = test system: SNB-75; assay: NCI growth inhibition, SNB-75 (CNS); assay type: cell-based, human
# [14] = target: PKCδ-C1B (Homo sapiens (Human), UniProt Q05655); assay: PKCδ-C1B Assay; assay type: binding
# [15] = test system: ACHN; assay: NCI growth inhibition, ACHN (Renal); assay type: cell-based, human
# [16] = test system: DU-145; assay: NCI growth inhibition, DU-145 (Prostate); assay type: cell-based, human
# [17] = test system: KM12; assay: NCI growth inhibition, KM12 (Colon); assay type: cell-based, human
# [18] = test system: MDA-MB-435; assay: NCI growth inhibition, MDA-MB-435 (Breast); assay type: cell-based, human
# [19] = test system: HL-60(TB); assay type: cell-based, human
# [20] = test system: NCI-H460; assay: NCI growth inhibition, NCI-H460 (NSC Lung); assay type: cell-based, human
# [21] = test system: RPMI-8226; assay: NCI growth inhibition, RPMI-8226 (Leukemia); assay type: cell-based, human
# [22] = test system: 786-0; assay: NCI growth inhibition, 786-0 (Renal); assay type: cell-based, human
# [23] = test system: SF-539; assay: NCI growth inhibition, SF-539 (CNS); assay type: cell-based, human
# [24] = test system: SW-620; assay: NCI growth inhibition, SW-620 (Colon); assay type: cell-based, human
# [25] = test system: UACC-62; assay: NCI growth inhibition, UACC-62 (Melanoma); assay type: cell-based, human
# [26] = test system: CCRF-CEM; assay: NCI growth inhibition, CCRF-CEM (Leukemia); assay type: cell-based, human
# [27] = test system: MDA-MB-231/ATCC; assay: NCI growth inhibition, MDA-MB-231/ATCC (Breast); assay type: cell-based, human
# [28] = test system: NCI/ADR-RES; assay: NCI growth inhibition, NCI/ADR-RES (Breast); assay type: cell-based, human
# [29] = test system: SNB-19; assay: NCI growth inhibition, SNB-19 (CNS); assay type: cell-based, human
# [30] = test system: SF-295; assay: NCI growth inhibition, SF-295 (CNS); assay type: cell-based, human
# [31] = test system: HCT-116; assay: NCI growth inhibition, HCT-116 (Colon); assay type: cell-based, human
# [32] = test system: UO-31; assay: NCI growth inhibition, UO-31 (Renal); assay type: cell-based, human
# [33] = 702.1 vs C26 methyl-containing analogue, 48, 49 vs other C20 esters
# Sequence of PKCδ-C1B (Q05655 whole entry, looked up): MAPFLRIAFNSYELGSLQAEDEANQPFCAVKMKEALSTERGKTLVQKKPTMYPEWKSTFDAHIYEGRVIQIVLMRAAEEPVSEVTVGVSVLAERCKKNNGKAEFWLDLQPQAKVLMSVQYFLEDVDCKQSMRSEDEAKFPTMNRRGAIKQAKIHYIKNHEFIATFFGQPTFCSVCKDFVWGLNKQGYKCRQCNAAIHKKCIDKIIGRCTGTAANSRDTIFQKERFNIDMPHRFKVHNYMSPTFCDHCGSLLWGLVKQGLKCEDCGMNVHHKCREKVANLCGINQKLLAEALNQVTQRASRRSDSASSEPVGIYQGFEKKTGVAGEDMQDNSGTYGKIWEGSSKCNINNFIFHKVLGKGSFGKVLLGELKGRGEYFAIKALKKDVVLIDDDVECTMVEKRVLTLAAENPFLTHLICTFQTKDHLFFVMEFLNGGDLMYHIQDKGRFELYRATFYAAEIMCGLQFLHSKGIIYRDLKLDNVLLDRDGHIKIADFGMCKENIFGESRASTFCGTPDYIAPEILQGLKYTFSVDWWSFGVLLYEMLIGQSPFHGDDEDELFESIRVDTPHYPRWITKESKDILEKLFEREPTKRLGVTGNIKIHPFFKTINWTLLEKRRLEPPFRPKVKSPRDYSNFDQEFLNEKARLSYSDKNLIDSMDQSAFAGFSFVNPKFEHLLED
smiles,measurement,setting,value
CCCCCCCC(=O)OC1C(=CC(=O)OC)CC2CC(CO)OC(=O)CC(O)CC3CCCC(CC4CCOC(C=CC(C)(C)C1(O)O2)O4)O3 (centres unmarked) [Formula IIa (702.1)],GI50,[1],−4.76 log of molar concentration
same,"Difference of GI50 (log), Desmethyl vs Bryo-1",[2]; SK-OV-3,0.80
same,GI50,"[2]; SK-OV-3, Ovarian",−4.3 log of molar concentration
same,"Difference of GI50 (log), Desmethyl vs Bryo-1",[3]; U251,−0.30
same,GI50,"[3]; U251, CNS",−5.4 log of molar concentration
same,"Difference of GI50 (log), Desmethyl vs Bryo-1",[4]; HOP-92,0.63
same,GI50,"[4]; HOP-92, NSC Lung",−4.67 log of molar concentration
same,"Difference of GI50 (log), Desmethyl vs Bryo-1",[5],0.42
same,GI50,[5]; Ovarian,−4.88 log of molar concentration
same,"Difference of GI50 (log), Desmethyl vs Bryo-1",[6]; OVCAR-8,0.33
same,GI50,"[6]; OVCAR-8, Ovarian",−4.77 log of molar concentration
same,"Difference of GI50 (log), Desmethyl vs Bryo-1",[7],−0.49
same,GI50,[7]; Renal,−5.59 log of molar concentration
same,activity in P388 assay relative to comparison analogues,[8]; [33],significantly higher activity
same,P388 Assay ED50,"[8]; 5 days incubation, MTT",17 nM
same,"Difference of GI50 (log), Desmethyl vs Bryo-1",[9]; K-562,−2.10
same,GI50,"[9]; K-562, Leukemia",−7.5 log of molar concentration
same,more active than bryostatin-1,"[9]; K-562, Leukemia",more than 2 orders of magnitude
same,"Difference of GI50 (log), Desmethyl vs Bryo-1",[10]; OVCAR-4,0.35
same,GI50,"[10]; OVCAR-4, Ovarian",−5.15 log of molar concentration
same,"Difference of GI50 (log), Desmethyl vs Bryo-1",[11]; MCF7,−0.20
same,GI50,"[11]; MCF7, Breast",−5.4 log of molar concentration
same,"Difference of GI50 (log), Desmethyl vs Bryo-1",[12],1.62
same,GI50,[12]; NSC Lung,−4.38 log of molar concentration
same,"Difference of GI50 (log), Desmethyl vs Bryo-1",[13]; SNB-75,0.53
same,GI50,"[13]; SNB-75, CNS",−4.97 log of molar concentration
same,activity in PKCδ-C1B assay relative to comparison analogues,[14]; [33],significantly higher activity
same,Ki,"[14]; competition with tritiated phorbol 12,13-dibutyrate",0.3 ± 0.07 nM
same,"Difference of GI50 (log), Desmethyl vs Bryo-1",[15],−0.44
same,GI50,[15]; Renal,−5.94 log of molar concentration
same,"Difference of GI50 (log), Desmethyl vs Bryo-1",[16]; DU-145,−0.02
same,GI50,"[16]; DU-145, Prostate",−5.02 log of molar concentration
same,"Difference of GI50 (log), Desmethyl vs Bryo-1",[17]; KM12,−0.14
same,GI50,"[17]; KM12, Colon",−5.34 log of molar concentration
same,"Difference of GI50 (log), Desmethyl vs Bryo-1",[18]; MDA-MB-435,−2.56
same,GI50,"[18]; MDA-MB-435, Breast",−7.66 log of molar concentration
same,more active than bryostatin-1,"[18]; MDA-MB-435, Breast",more than 2 orders of magnitude
same,"Difference of GI50 (log), Desmethyl vs Bryo-1",[19],−0.14
same,GI50,[19],−5.84 log of molar concentration
same,"Difference of GI50 (log), Desmethyl vs Bryo-1",[20]; NCI-H460,−2.40
same,GI50,"[20]; NCI-H460, NSC Lung",<−8 log of molar concentration
same,more active than bryostatin-1,"[20]; NCI-H460, NSC Lung",more than 2 orders of magnitude
same,"Difference of GI50 (log), Desmethyl vs Bryo-1",[21]; RPMI-8226,−0.82
same,GI50,"[21]; RPMI-8226, Leukemia",−5.82 log of molar concentration
same,"Difference of GI50 (log), Desmethyl vs Bryo-1",[22]; 786-0,−0.26
same,GI50,"[22]; 786-0, Renal",−5.46 log of molar concentration
same,"Difference of GI50 (log), Desmethyl vs Bryo-1",[23]; SF-539,−0.77
same,GI50,"[23]; SF-539, CNS",−5.77 log of molar concentration
same,"Difference of GI50 (log), Desmethyl vs Bryo-1",[24]; SW-620,0.38
same,GI50,"[24]; SW-620, Colon",−5.12 log of molar concentration
same,"Difference of GI50 (log), Desmethyl vs Bryo-1",[25]; UACC-62,0.19
same,GI50,"[25]; UACC-62, Melanoma",−5.11 log of molar concentration
same,"Difference of GI50 (log), Desmethyl vs Bryo-1",[26],−0.51
same,GI50,[26]; Leukemia,−5.81 log of molar concentration
same,"Difference of GI50 (log), Desmethyl vs Bryo-1",[27],−0.49
same,GI50,[27]; Breast,−5.69 log of molar concentration
same,GI50,[28],−4.74 log of molar concentration
same,"Difference of GI50 (log), Desmethyl vs Bryo-1",[29]; SNB-19,−0.20
same,GI50,"[29]; SNB-19, CNS",−5.2 log of molar concentration
same,"Difference of GI50 (log), Desmethyl vs Bryo-1",[30]; SF-295,−0.85
same,GI50,"[30]; SF-295, CNS",−6.05 log of molar concentration
same,"Difference of GI50 (log), Desmethyl vs Bryo-1",[31]; HCT-116,−0.02
same,GI50,"[31]; HCT-116, Colon",−5.32 log of molar concentration
same,"Difference of GI50 (log), Desmethyl vs Bryo-1",[32]; UO-31,0.75
same,GI50,"[32]; UO-31, Renal",−4.85 log of molar concentration
